Experimental data as given in patent US7026516B2 (priority 2000, dated 2006).
Like-named read-outs stand apart in the source and are kept apart here.

Columns and labels:
serotonin transporter = molecular target: T1, serotonin transporter (Macaca mulatta, UniProt Q9MYX0); test: biochemical; format: binding
T1 construct: Each caudate-putamen was homogenized and used separately for dopamine and serotonin transporter assays; from tissue; host or cells: caudate-putamen membranes of adult cynomolgus or rhesus monkey brain
T1 sequence (Q9MYX0 whole entry): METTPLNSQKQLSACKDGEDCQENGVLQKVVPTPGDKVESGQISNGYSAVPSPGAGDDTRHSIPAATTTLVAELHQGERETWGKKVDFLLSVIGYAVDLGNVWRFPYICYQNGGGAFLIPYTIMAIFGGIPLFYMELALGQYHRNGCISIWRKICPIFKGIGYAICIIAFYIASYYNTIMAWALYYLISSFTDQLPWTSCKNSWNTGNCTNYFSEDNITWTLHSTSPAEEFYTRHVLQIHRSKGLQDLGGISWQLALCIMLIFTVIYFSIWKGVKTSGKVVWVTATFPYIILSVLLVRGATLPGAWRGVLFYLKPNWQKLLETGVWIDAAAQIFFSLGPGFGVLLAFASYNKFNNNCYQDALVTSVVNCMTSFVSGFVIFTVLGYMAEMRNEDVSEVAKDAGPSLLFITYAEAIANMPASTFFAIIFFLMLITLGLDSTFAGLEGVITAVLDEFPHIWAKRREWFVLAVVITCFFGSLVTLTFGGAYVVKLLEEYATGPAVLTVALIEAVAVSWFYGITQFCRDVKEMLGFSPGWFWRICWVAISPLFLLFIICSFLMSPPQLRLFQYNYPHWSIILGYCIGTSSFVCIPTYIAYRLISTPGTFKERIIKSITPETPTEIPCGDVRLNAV
Description: The affinities and transporter selectivities of the drugs were assessed in brain tissue of adult cynomolgus or rhesus monkey (Macaca fasicularis or Macaca Mulatta). Caudate-putamen was the source of the dopamine and serotonin transporters. The dopamine transporter affinity was measured with [3H]WIN 35,428 ([3H]CFT), the serotonin transporter was measured with [3H]citalopram and the norepinephrine transporter was measured with [3H]nisoxetine. Affinities of selected compounds were also measured at the human dopamine transporter in HEK-293 cells expressing the human dopamine transporter (hDAT).
Brain tissue was harvested from adult male and female cynomolgus (Macaca fasicularis) or rhesus (Macaca Mulatta) monkeys euthanized in the course of other research or after spontaneous death. Tissue was stored in the brain bank at the New England Regional Primate Research Center at −85° C. The caudate-putamen (approximately 1.5 g) was dissected from coronal sections of brain. Each caudate-putamen was homogenized and used separately for dopamine and serotonin transporter assays. Prior to homogenization, the thalamus from two brains was pooled and membranes were prepared as described previously for norepinephrine transporter assays (Madras et al., Synapse, 22:231–232, 1998; Madras et al., Synapse, 24:340–348, 1996). Briefly, the tissue was homogenized in 10 volumes (w/v) of ice-cold Tris.HCl buffer (50 mM, pH 7.4 at 0–4° C.) and centrifuged at 38,700×g for 20 min in the cold. The resulting pellet was resuspended in 40 volumes of buffer, and the entire wash procedure was repeated twice. The membrane suspension (25 mg original wet weight of tissue/ml) was diluted to 12 mg/ml in buffer just prior to assay and dispersed with a Brinkmanm polytron (setting #5) for 15 sec. […] All experiments were conducted in triplicate and each experiment was repeated in 2–4 individual tissue preparations.
The serotonin transporter was assayed in caudate-putamen membranes using similar assay conditions as for the dopamine transporter. […] The affinity of drugs for the serotonin transporter labeled by [^3H]citalopram (spec. act.: approximately 85 Ci/mmol, NEN) was determined in experiments by incubating tissue with a fixed concentration of [^3H]citalopram and a range of concentrations of drug. Assays were conducted in Tris-HCl buffer containing NaCl (100 mM) and the following constituents: [^3 H]citalopram (1 nM, 0.2 ml), test drug (1 pM–100 TM, 0.2 ml) and tissue (0.2 ml, 3 mg/ml original wet tissue weight). The 2 h incubation (0–4° C.) was initiated by addition of membranes and terminated by rapid filtration over Whatman GF/B glass fiber filters pre-soaked 1 hour in 0.1% polyethyleneimine. The filters were washed three times with 5 ml Tris.HCl buffer (50 mM), and the remaining steps were carried out as described above. Total binding was defined as [^3H]citalopram bound in the presence of ineffective concentrations of unlabeled citalopram (1 pM) or the test compounds. Non-specific binding was defined as [^3H]citalopram bound in the presence of an excess (10 TM) of fluoxetine. Specific binding was the difference between the two values. Cpm were converted to dpm following determination of counting efficiency (>45%) of each vial by external standardization.
Data were analyzed by the EBDA and LIGAND computer software programs (ElsevierBiosoft, U.K.) Final estimates of IC50 and nH values were computed by the EBDA program. Baseline values for the individual drugs were established by computer analysis, using the baseline drugs as a guide. The LIGAND program provided final parameter estimates for the affinity of the radioligand (Kd) by iterative non-linear curve-fitting and evaluation of one- or two-component binding models. LIGAND was used to measure the affinity of the radioligands at the dopamine and serotonin transporter. Graphs (not shown) were produced by the computer software program PRISM, using a one- or two-site competition analysis curve.

dopamine transporter = molecular target: T2, dopamine transporter (Macaca fascicularis, UniProt Q9GJT6); test: Inhibition of [3H]WIN 35,428 binding to the dopamine transporter in monkey caudate-putamen
T2 construct: Each caudate-putamen was homogenized and used separately for dopamine and serotonin transporter assays; from tissue; host or cells: caudate-putamen membranes of adult cynomolgus or rhesus monkey brain
T2 sequence (Q9GJT6 whole entry): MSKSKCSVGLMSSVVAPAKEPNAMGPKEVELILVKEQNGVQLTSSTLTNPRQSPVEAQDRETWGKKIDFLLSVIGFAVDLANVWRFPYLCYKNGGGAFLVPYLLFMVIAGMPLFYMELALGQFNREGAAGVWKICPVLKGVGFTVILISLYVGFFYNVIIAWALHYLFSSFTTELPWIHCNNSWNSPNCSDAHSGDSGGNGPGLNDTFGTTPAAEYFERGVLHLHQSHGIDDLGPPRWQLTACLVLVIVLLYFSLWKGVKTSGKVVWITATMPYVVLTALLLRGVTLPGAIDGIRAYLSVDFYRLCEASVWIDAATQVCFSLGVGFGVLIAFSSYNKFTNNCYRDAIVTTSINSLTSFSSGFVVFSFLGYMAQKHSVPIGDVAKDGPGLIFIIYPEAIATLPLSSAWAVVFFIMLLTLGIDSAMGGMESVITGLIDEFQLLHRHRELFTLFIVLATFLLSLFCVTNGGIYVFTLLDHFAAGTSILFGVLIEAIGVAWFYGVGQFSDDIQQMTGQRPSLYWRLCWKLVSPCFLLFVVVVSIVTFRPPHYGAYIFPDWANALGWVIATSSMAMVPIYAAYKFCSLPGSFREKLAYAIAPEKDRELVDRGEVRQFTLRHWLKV

[1] = Table 2, affinity at the serotonin transporter, read-out: SERT IC50
[2] = Table 2, affinity at the dopamine transporter, read-out: DAT IC50
[3] = Table 1, [3H]citalopram, monkey caudate-putamen, mean of 3 or more experiments, read-out: SERT IC50
[4] = Table 2, ratio of SERT and DAT IC50 values
[5] = Table 1, [3H]WIN 35,428, monkey caudate-putamen, mean of 3 or more experiments, read-out: DAT IC50
[6] = read-out: IC50, binding potency at the DAT

SMILES	IC50 (serotonin transporter; [1]) [nM]	IC50 (dopamine transporter; [2]) [nM]	IC50 (serotonin transporter; [3]) [nM]	DAT/SERT RATIO (dopamine transporter; [4])	other results
COC(=O)C(c1ccccc1)C1CCCCN1 (centres unmarked) [Methylphenidate, reference compound]					IC50 (serotonin transporter): > 100000 nM; DAT/SERT RATIO (dopamine transporter): 5,800; IC50 (dopamine transporter): 17.2 ± 2.04 nM
COC(=O)C(c1ccc(Cl)c(Cl)c1)C1CCCCO1 (centres unmarked) [Compound 0-1731, 2-(3,4-Dichlorophenyl)tetrahydropyran-2-yl acetic acid methyl esters]	7800	286 ± 10.5			
COC(=O)[C@@H](c1ccc(Cl)c(Cl)c1)[C@@H]1CCCCO1 [Compound O-1794, 2S-(3,4-Dichlorophenyl)tetrahydropyran-2′S-yl acetic acid methyl ester]			1660		IC50 (dopamine transporter): 33.9 ± 8.6 nM
CO[C@@H]1C[C@H](c2ccc3ccccc3c2)c2ccccc21 (relative stereo) [Compound 0-1833, Cis-3-(2-Naphthyl)-0-methylindanol]	422 ± 38	189 ± 12		2	
CO[C@@H]1C[C@@H](c2ccc(Cl)c(Cl)c2)c2ccccc21 (relative stereo) [Compound 0-1630, Trans-1-Methoxy-3-(3,4-dichlorophenyl)indans]	334 ± 100	60 ± 23		6	
CO[C@@H]1C[C@H](c2ccc(Cl)c(Cl)c2)c2ccccc21 (relative stereo) [Compound 0-1617, Cis-1-Methoxy-3-(3,4-dichlorophenyl)indans]	> 4100	130 ± 49.7		>32	
CO[C@@H]1C[C@@H](c2ccc3ccccc3c2)c2ccccc21 (relative stereo) [Compound 0-1925, Trans-1-Methoxy-3-(2-naphthyl)indans]	136 ± 4.5	213 ± 27		0.6	
COC(=O)[C@H](c1ccc(Cl)c(Cl)c1)[C@@H]1CCCCO1 [Compound O-1792, 2R-(3,4-Dichlorophenyl)tetrahydropyran-2′S-yl acetic acid methyl ester]	> 10000		> 10000		
O=C(O)[C@H](c1ccc(Cl)c(Cl)c1)[C@H]1CCCCO1					melting point: 139.1 to 140.1 °C
O=C(O)[C@H](c1ccc(Cl)c(Cl)c1)C1CCCCO1 (some centres unmarked)					melting point: 124.1 to 125.1 °C
N#CC(c1ccc(Cl)c(Cl)c1)C1CCCC1 (stereo not drawn) [Compound 10, α-cyclopentyl-3,4-dichlorobenzylcyanide]		128		78	IC50 (dopamine transporter; [5]): 128 nM
COC(=O)C(c1ccc(Cl)c(Cl)c1)C1CCCCO1 (centres unmarked) [Compound 0-1730, 2-(3,4-Dichlorophenyl)tetrahydropyran-2-yl acetic acid methyl esters]	2180				
COC(=O)[C@@H](c1ccc(Cl)c(Cl)c1)[C@H]1CCCCO1 [Compound O-1793, 2S-(3,4-Dichlorophenyl)tetrahydropyran-2′R-yl acetic acid methyl ester]	> 10000		> 10000		
N#CC(c1ccc(Cl)c(Cl)c1)C1CCCCC1 (stereo not drawn) [Compound 8, α-cyclohexyl-3,4-dichlorobenzylcyanide]	8000	127	8000	63	IC50 (serotonin transporter; read-out: IC50, binding potency at the SERT): 8000 to 12000 nM; IC50 (dopamine transporter; [6]): 127 to 146 nM
O=C(O)C(c1ccc(Cl)c(Cl)c1)C1CCCCO1 (centres unmarked)					melting point: 138.9 to 139.9 °C
COC(=O)C(c1ccc2ccccc2c1)C1CCCCO1 (centres unmarked) [Naphthyl mixture, (2-Naphthyl)-(tetrahydropyran-2-yl) acetic acid methyl esters]	5000	300	5000	16.7	IC50 (serotonin transporter; binding to the SERT, read-out: SERT IC50): 5000 nM; IC50 (dopamine transporter; [5]): 300 nM; IC50 (dopamine transporter; binding to the DAT, read-out: DAT IC50): 300 nM; IC50 (dopamine transporter; [6]): 300 nM
COC(=O)[C@H](c1ccc(Cl)c(Cl)c1)[C@H]1CCCCO1 [Compound O-1783]	> 10000		> 10000		IC50 (dopamine transporter): 17 ± 1.3 nM
